In patent US7285534B2, “Corticotropin-releasing hormone analogs and their uses” (The Regents of the University of California, priority 2002, dated 2007):
Entries after “also recorded” stand apart in the source; their conditions may differ. Where two headings read alike, the source gives them in different places. Residues, ends and D or L forms follow the SMILES beside them.

Experiments:
[1] = system: S91 mouse Cloudman cells (cell line M3); assay: In vitro anti-proliferation assay, Cloudman melanoma cell counts; assay type: cell-based; details: for EC50: Cloudman melanoma cells; for Anti-proliferative effect on Cloudman melanoma cells (in words): in vitro
Description: S91 mouse Cloudman cells (cell line M3) were obtained from the American Type Culture Collection. Hams F-10 medium, fetal bovine serum, and horse serum were obtained from Gibco BRL. Cloudman cells were cultured in Ham's F-10 medium supplemented with 5% horse serum, 2.5% fetal bovine serum, and 1% penicillin/streptomycin in a humidified incubator with 5% C02 at 37° C. Media were changed every second day.
Cells were plated at a concentration of ˜20,000 cells per well in Ham's F-10 medium supplemented with 5% horse serum, 2.5% fetal bovine serum and 1% penicillin/streptomycin into tissue-culture-12-well plates. Test peptides or sterile water containing 0.5% BSA (vehicle control) were added to culture medium prior to plating, and cells were allowed to adhere overnight in a humidified incubator with 5% CO2 at 37° C. Culture medium containing peptides and culture medium containing vehicle control were changed daily. For counting, cells were detached with 200 μL of 0.25% trypsin. Detachment levels were verified under a light microscope. After detachment, cell suspensions were transferred to 1.5-mL Eppendorf tubes, vigorously pipetted for uniform suspension, and cell number in 10 μL of cell suspension was counted in a hemacytometer under a light microscope.

[2] = Hypotensive activity relative to CRH; details: in vivo
[3] = system: W256 rat mammary carcinoma; details: 100 micrograms/kg subcutaneously twice a day for 3 days; cited from earlier work
[4] = system: W256 cells; details: cited from earlier work
[5] = read-out: EC50 values for CRH peptides versus Cloudman melanoma
[6] = Cloudman cells, relative to CRH

Compound	EC50 [1, 5]	Anti-proliferative effect on Cloudman melanoma cells (in words) [1]	further results
CC[C@H](C)[C@H](NC(=O)[C@@H](NC(=O)[C@H](CCC(=O)O)NC(=O)[C@H](CCSC)NC(=O)[C@H](CC(C)C)NC(=O)[C@H](CCCCN)NC(=O)[C@H](CCCNC(=N)N)NC(=O)[C@H](CC(N)=O)NC(=O)[C@H](CO)NC(=O)[C@H](Cc1c[nH]cn1)NC(=O)[C@H](C)NC(=O)[C@H](CCC(N)=O)NC(=O)[C@H](CCC(N)=O)NC(=O)[C@H](C)NC(=O)[C@H](CC(C)C)NC(=O)[C@H](CCC(N)=O)NC(=O)[C@H](CCC(=O)O)NC(=O)[C@H](C)NC(=O)[C@H](CCCNC(=N)N)NC(=O)[C@H](C)NC(=O)[C@H](CCSC)NC(=O)[C@H](CCC(=O)O)NC(=O)[C@H](CC(C)C)NC(=O)[C@@H](NC(=O)[C@H](CCC(=O)O)NC(=O)[C@H](CCCNC(=N)N)NC(=O)[C@H](CC(C)C)NC(=O)[C@H](CC(C)C)NC(=O)[C@H](Cc1c[nH]cn1)NC(=O)[C@H](Cc1ccccc1)NC(=O)[C@@H](NC(=O)[C@H](CC(C)C)NC(=O)[C@H](CC(=O)O)NC(=O)[C@H](CC(C)C)NC(=O)[C@H](CO)NC(=O)[C@@H](NC(=O)[C@H]1CCCN1C(=O)[C@@H]1CCCN1C(=O)[C@H](CCC(=O)O)NC(=O)[C@H](CCC(=O)O)NC(=O)[C@@H](N)CO)[C@@H](C)CC)[C@@H](C)O)C(C)C)[C@@H](C)CC)C(N)=O [III, [D-Pro^5]-CRH]	82 pM		EC50 fold greater than CRH [1, 6]: 10 fold
CC[C@H](C)[C@H](NC(=O)[C@@H](NC(=O)[C@H](CC(=O)O)NC(=O)[C@H](CC(C)C)NC(=O)[C@H](CC(C)C)NC(=O)[C@H](CC(C)C)NC(=O)[C@H](CCCNC(=N)N)NC(=O)[C@H](CC(N)=O)NC(=O)[C@H](CC(N)=O)NC(=O)[C@H](C)NC(=O)[C@H](C)NC(=O)[C@H](CCC(N)=O)NC(=O)[C@H](CCC(N)=O)NC(=O)[C@H](CCCCN)NC(=O)[C@H](CCC(=O)O)NC(=O)[C@H](CCCCN)NC(=O)[C@H](CCC(=O)O)NC(=O)[C@H](CCC(N)=O)NC(=O)[C@H](CCCCN)NC(=O)[C@H](CCC(=O)O)NC(=O)[C@@H](NC(=O)[C@H](CCC(=O)O)NC(=O)[C@@H](NC(=O)[C@H](CCSC)NC(=O)[C@H](CCCCN)NC(=O)[C@H](CCCNC(=N)N)NC(=O)[C@H](CC(C)C)NC(=O)[C@H](CC(C)C)NC(=O)[C@H](CCC(=O)O)NC(=O)[C@H](CC(C)C)NC(=O)[C@H](CO)NC(=O)[C@H](CC(C)C)NC(=O)[C@H](CC(=O)O)NC(=O)[C@@H](NC(=O)[C@H](CO)NC(=O)[C@@H](NC(=O)[C@@H]1CCCN1C(=O)[C@@H]1CCCN1C(=O)CNC(=O)[C@@H]1CCC(=O)N1)[C@@H](C)CC)[C@@H](C)CC)[C@@H](C)CC)[C@@H](C)CC)[C@@H](C)O)C(N)=O [VII, Sauvagine]	7.8 pM	highly effective in suppressing proliferation	
acetyl-cyclo (30-33)[D-Phe^12, Nle^18, D-Glu^20, Nle^21, Glu^30, D-Ala^32]-urotensin 1(4-41) [Peptide V]		highly effective in suppressing proliferation	EC50 fold lower than that of CRH [1, 6]: 10 fold
α-helical-CRH(9-41)			Inhibition of the anti-proliferative effect of CRH peptides by the CRH receptor antagonist ([1]; Cloudman cells): inhibited

Further lines, with some results ahead:

EC50 [1, 5]	Compound	Anti-proliferative effect on Cloudman melanoma cells (in words) [1]	further results
16 pM	CC[C@H](C)[C@H](NC(=O)[C@@H](NC(=O)[C@H](CCC(=O)O)NC(=O)[C@H](CCSC)NC(=O)[C@H](CC(C)C)NC(=O)[C@H](CCCCN)NC(=O)[C@H](CCCNC(=N)N)NC(=O)[C@H](CC(N)=O)NC(=O)[C@H](CO)NC(=O)[C@H](Cc1c[nH]cn1)NC(=O)[C@H](C)NC(=O)[C@H](CCC(N)=O)NC(=O)[C@H](CCC(N)=O)NC(=O)[C@H](C)NC(=O)[C@H](CC(C)C)NC(=O)[C@H](CCC(N)=O)NC(=O)[C@H](CCC(=O)O)NC(=O)[C@H](C)NC(=O)[C@H](CCCNC(=N)N)NC(=O)[C@H](C)NC(=O)[C@H](CCSC)NC(=O)[C@@H](CCC(=O)O)NC(=O)[C@H](CC(C)C)NC(=O)[C@@H](NC(=O)[C@H](CCC(=O)O)NC(=O)[C@H](CCCNC(=N)N)NC(=O)[C@H](CC(C)C)NC(=O)[C@H](CC(C)C)NC(=O)[C@H](Cc1c[nH]cn1)NC(=O)[C@H](Cc1ccccc1)NC(=O)[C@@H](NC(=O)[C@H](CC(C)C)NC(=O)[C@H](CC(=O)O)NC(=O)[C@H](CC(C)C)NC(=O)[C@H](CO)NC(=O)[C@@H](NC(=O)[C@@H]1CCCN1C(=O)[C@@H]1CCCN1C(=O)[C@H](CCC(=O)O)NC(=O)[C@H](CCC(=O)O)NC(=O)[C@@H](N)CO)[C@@H](C)CC)[C@@H](C)O)C(C)C)[C@@H](C)CC)C(N)=O [II, [D-Glu^20]-CRH]	retained; also recorded: significantly inhibit proliferation	Hypotensive activity relative to CRH [2]: diminished
8.6 pM	CC[C@H](C)[C@H](NC(=O)[C@@H](NC(=O)[C@H](CCC(=O)O)NC(=O)[C@H](CCSC)NC(=O)[C@H](CC(C)C)NC(=O)[C@H](CCCCN)NC(=O)[C@H](CCCNC(=N)N)NC(=O)[C@H](CC(N)=O)NC(=O)[C@H](CO)NC(=O)[C@H](Cc1c[nH]cn1)NC(=O)[C@H](C)NC(=O)[C@H](CCC(N)=O)NC(=O)[C@H](CCC(N)=O)NC(=O)[C@H](C)NC(=O)[C@H](CC(C)C)NC(=O)[C@H](CCC(N)=O)NC(=O)[C@H](CCC(=O)O)NC(=O)[C@H](C)NC(=O)[C@H](CCCNC(=N)N)NC(=O)[C@H](C)NC(=O)[C@H](CCSC)NC(=O)[C@H](CCC(=O)O)NC(=O)[C@H](CC(C)C)NC(=O)[C@@H](NC(=O)[C@H](CCC(=O)O)NC(=O)[C@H](CCCNC(=N)N)NC(=O)[C@H](CC(C)C)NC(=O)[C@H](CC(C)C)NC(=O)[C@H](Cc1c[nH]cn1)NC(=O)[C@H](Cc1ccccc1)NC(=O)[C@@H](NC(=O)[C@H](CC(C)C)NC(=O)[C@H](CC(=O)O)NC(=O)[C@H](CC(C)C)NC(=O)[C@H](CO)NC(=O)[C@@H](NC(=O)[C@@H]1CCCN1C(=O)[C@@H]1CCCN1C(=O)[C@H](CCC(=O)O)NC(=O)[C@H](CCC(=O)O)NC(=O)[C@@H](N)CO)[C@@H](C)CC)[C@@H](C)O)C(C)C)[C@@H](C)CC)C(N)=O [Peptide I, CRH]	Significant anti-proliferative effects	Time of maximum suppression of proliferation after treatment ([1]; Cloudman cells): about 96 hr; EC50 ([1]; 96 hr, read-out: EC50 of CRH after 96 hr): 9 pM; Inhibition of growth of intracerebrally-injected W256 tumor cells [3]: significant inhibition of growth; Antiproliferative effects in in vitro cultures of W256 cells [4]: exhibited antiproliferative effects
9.5 pM	CC[C@H](C)[C@H](NC(=O)[C@H](CO)NC(=O)[C@H](CC(C)C)NC(=O)[C@H](CO)NC(=O)[C@@H]1CCCN1C(=O)[C@H](CC(N)=O)NC(=O)[C@@H](N)CC(=O)O)C(=O)N[C@@H](CC(=O)O)C(=O)N[C@@H](CC(C)C)C(=O)N[C@H](C(=O)N[C@@H](Cc1ccccc1)C(=O)N[C@@H](Cc1c[nH]cn1)C(=O)N[C@@H](CC(C)C)C(=O)N[C@@H](CC(C)C)C(=O)N[C@@H](CCCNC(=N)N)C(=O)N[C@H](C(=O)N[C@@H](CC(C)C)C(=O)N[C@@H](CC(C)C)C(=O)N[C@@H](CCC(=O)O)C(=O)N[C@@H](CC(C)C)C(=O)N[C@@H](C)C(=O)N[C@@H](CCCNC(=N)N)C(=O)N[C@H](C(=O)N[C@@H](CCC(N)=O)C(=O)N[C@@H](CO)C(=O)N[C@@H](CCC(N)=O)C(=O)N[C@@H](CCCNC(=N)N)C(=O)N[C@@H](CCC(=O)O)C(=O)N[C@@H](CCCNC(=N)N)C(=O)N[C@@H](C)C(=O)N[C@@H](CCC(=O)O)C(=O)N[C@@H](CCC(N)=O)C(=O)N[C@@H](CC(N)=O)C(=O)N[C@@H](CCCNC(=N)N)C(=O)N[C@H](C(=O)N[C@H](C(=O)N[C@@H](Cc1ccccc1)C(=O)N[C@@H](CC(=O)O)C(=O)N[C@@H](CO)C(=O)N[C@H](C(N)=O)C(C)C)[C@@H](C)CC)[C@@H](C)CC)[C@@H](C)O)[C@@H](C)O)[C@@H](C)O [VI, Urocortin] (H-DNPSLSIDLTFHLLRTLLELARTQSQRERAEQNRIIFDSV-NH2)	highly effective in suppressing proliferation	
